Source: US10478437B2, “Combination therapy to enhance the anticancer efficacy of platinum drugs” (University of Pittsburgh-of the Commonwealth System of …, priority 2014, dated 2019)

System: cisplatin-resistant ovarian cancer cell line A2780cis
Test: Caspase-3/7 activity assay (apoptotic cell death), compound alone or with cisplatin
Format: cell-based, human
Settings: for caspase-3/7 activity (Lum), compound with cisplatin / caspase-3/7 activity (Lum), compound alone: 20 h; for caspase-3/7 activity (Lum), compound alone: compound 20 μM; for activity in the screen (Caspase-3/7 activity and microscopic examination), active / inactive: alone or in the presence of cisplatin, in words
Method: Cell proliferation was determined using a CyQUANT Direct Cell Proliferation Assay kit (Invitrogen), the activity of caspase-3/7 was measured using a Caspase-Glo 3/7 Assay Systems (Promega, Madison, Wis.), and the MTS calorimetric survival assay was performed using the CellTiter 96 AQueous One Solution Cell Proliferation Assay kit (Promega, Madison, Wis.), according to the manufacturer's instructions. The survival fractions were calculated after setting untreated control cells at 100%. The data were plotted and curve fitted using GraphPad Prism software. To quantify the number of cells with active caspase-3, cells were fixed with 4% paraformaldehyde (Electron microscopy sciences, Hatfield, Pa.), stained with Alexa Fluor-488 conjugated antibody against cleaved caspase-3 (Asp175) (Cell Signaling Technology, Danvers, Mass.) followed by flow cytometry. An FITC Annexin V Apoptosis Detection Kit (BD PharMingen, San Diego, Calif.) was used to quantify apoptotic cells, according to the manufacturer's instructions.
A Caspase-3/7 assay was performed to evaluate the activity of the 36 compounds of FIG. 1 in vitro in the cisplatin-resistant ovarian cancer cell line, A2780cis, alone or in the presence of cisplatin. A microscopic examination of apoptotic morphologic changes was also carried out right before the measurement of Caspase-3/7 activity, in order to confirm that the data on the activation of the Caspase-3/7 following treatment is consistent with morphological change and reflects cell death.

[1] = Table 1, compound 20 μM with 20 μM cisplatin
[2] = Table 1, mean ± S.D. of triplicates
[3] = Table 3, compound 20 μM with 20 μM of cisplatin

Structure (SMILES) | caspase-3/7 activity (Lum), compound with cisplatin [1] [Lum] | caspase-3/7 activity (Lum), compound alone [2] [Lum] | activity in the screen (Caspase-3/7 activity and microscopic examination), active / inactive | caspase-3/7 activity (Lum), compound with cisplatin [3] [Lum] | caspase-3/7 activity (Lum), compound alone (Table 3) [Lum]
COc1ccccc1Cn1c(=S)[nH]c2ccccc2c1=O [Compound 1-20] | 39 ± 3 | 13 ± 1 |  |  | 
O=C(CCn1c(=S)[nH]c2ccccc2c1=O)NCC1(c2ccccc2)CCCC1 [Compound 1-13] | 35 ± 3 | 14 ± 1 |  |  | 
C=CCn1c(=S)[nH]c2scc(-c3ccc(Oc4ccccc4)cc3)c2c1=O [Compound 1-15] | 28 ± 3 | 12 ± 2 | inactive |  | 
Cc1cccc2c(=O)n(CCN(C)C)c(=S)[nH]c12 [Compound 1-7] | 20 ± 3 | 12 ± 2 |  |  | 
Cc1ccc(NC(=S)NC(=O)c2ccc(F)cc2)nc1 [Compound 2-23] |  |  | inactive | 22 ± 2 | 7 ± 0
O=C(NC(=S)NCc1ccccc1)C1CCCCC1 [Compound 2-30] |  |  |  | 20 ± 5 | 6 ± 0
CN(C)CCn1c(=S)[nH]c2ccc(Cl)cc2c1=O [Compound 1-5] | 32 ± 1 | 13 ± 1 |  |  | 
O=C(NC(=S)Nc1ccccc1N1CCOCC1)c1ccco1 [Compound 2-3] |  |  |  | 20 ± 1 | 8 ± 1
Cc1cccnc1NC(=S)NC(=O)c1cccs1 [Compound 2-2] |  |  |  | 25 ± 1 | 9 ± 1
COc1ccc(C(C)=C2C(=O)NC(=S)NC2=O)cc1OC [Compound 2-26] |  |  |  | 21 ± 4 | 6 ± 0
O=C(NC(=S)NCCN1CCOCC1)c1ccc(Cl)cc1 [Compound 2-18] |  |  |  | 17 ± 1 | 9 ± 1
O=C(CNC(=S)NC(=O)c1ccco1)c1ccccc1 [Compound 2-12] |  |  |  | 18 ± 1 | 7 ± 1
Cc1ccc(-c2csc3[nH]c(=S)n(-c4ccccc4)c(=O)c23)o1 [Compound 1-1] | 28 ± 1 | 12 ± 1 | inactive |  | 
O=C(CCn1c(=O)[nH]c2ccccc2c1=O)NCCCOc1ccc(F)cc1 [Compound 1-18] | 19 ± 3 | 12 ± 1 |  |  | 
C=CCn1c(=S)[nH]c2cc(C(=O)Nc3cc(OC)c(OC)c(OC)c3)ccc2c1=O [Compound 1-22] | 25 ± 2 | 16 ± 1 |  |  | 
O=C(NC(=S)NC1CCS(=O)(=O)C1)c1ccccc1 (centres unmarked) [Compound 2-14] |  |  |  | 21 ± 2 | 8 ± 1
CC1CCc2c(sc3[nH]c(=S)n(Cc4ccccc4)c(=O)c23)C1 (centres unmarked) [Compound 1-2] | 25 ± 3 | 12 ± 1 | inactive |  | 
CCCN1C(=O)C(=C(C)NC2CCC(C)CC2)C(=O)NC1=S (centres unmarked) [Compound 2-27] |  |  |  | 19 ± 3 | 7 ± 1
O=C(NC(=S)Nc1ccccc1N1CCCC1)c1cccs1 [Compound 2-4] |  |  |  | 18 ± 1 | 8 ± 1
O=C(NC(=S)Nc1ccccc1)c1ccc(Br)o1 [Compound 2-8] |  |  |  | 20 ± 2 | 7 ± 2
CCCCn1c(=S)[nH]c2cc(C(=O)OC)ccc2c1=O [Compound 1-36] | 47 ± 3 | 16 ± 2 |  |  | 
Cc1[nH]c(=S)[nH]c(=O)c1CCC(=O)NCCc1c[nH]c2ccccc12 [Compound 1-11] | 18 ± 2 | 12 ± 1 |  |  | 
O=C(NC(=S)NCCN1CCOCC1)c1ccc(F)cc1 [Compound 2-17] |  |  |  | 18 ± 1 | 7 ± 2
Cc1c(NC(=S)NC(=O)C(C)(C)C)c(=O)n(-c2ccccc2)n1C [Compound 2-10] |  |  |  | 20 ± 2 | 7 ± 2

Structure (SMILES) | caspase-3/7 activity (Lum), compound with cisplatin [1] [Lum] | caspase-3/7 activity (Lum), compound alone [2] [Lum] | activity in the screen (Caspase-3/7 activity and microscopic examination), active / inactive | caspase-3/7 activity (Lum), compound with cisplatin [3] [Lum] | caspase-3/7 activity (Lum), compound alone (Table 3) [Lum]
O=C(NC(=S)Nc1ccc(F)c(Cl)c1)C1CCCCC1 [Compound 2-16] |  |  |  | 17 ± 1 | 8 ± 1
O=C(CCn1c(=S)[nH]c2ccccc2c1=O)N1CCOCC1 [Compound 1-9] | 23 ± 1 | 13 ± 1 |  |  | 
COc1ccc(C(C)=C2C(=O)NC(=S)NC2=O)cc1 [Compound 2-25] |  |  |  | 24 ± 2 | 6 ± 0
CC(=O)Nn1c(=S)[nH]c2ccccc2c1=O [Compound 1-29] | 23 ± 1 | 15 ± 2 |  |  | 
CN(Cc1ccc(Cl)c(Cl)c1)C(=O)CCn1c(=O)[nH]c(=O)c2ccccc21 [Compound 1-23] | 27 ± 1 | 15 ± 1 |  |  | 
O=c1[nH]c2ccccc2c(=O)n1CCc1ccccc1 [Compound 1-33] | 16 ± 1 | 10 ± 1 |  |  | 
Nn1c(=S)[nH]c2ccccc2c1=O [Compound 1-28] | 22 ± 2 | 15 ± 1 |  |  | 
CC(C)(C)C1CCc2c(sc3[nH]c(=S)n(Cc4ccccc4)c(=O)c23)C1 (centres unmarked) [Compound 1-27] | 40 ± 5 | 23 ± 2 | inactive |  | 
C=CCn1c(=S)[nH]c2scc(-c3ccc(C)c(C)c3)c2c1=O [Compound 1-3] | 28 ± 2 | 12 ± 1 | inactive |  | 
COc1ccc(C=C2C(=O)NC(=S)NC2=O)c(OC)c1 [Compound 2-6] |  |  |  | 22 ± 1 | 7 ± 1
CCN(CC)CCn1c(=O)[nH]c2ccccc2c1=O [Compound 1-31] | 26 ± 4 | 12 ± 1 |  |  | 
COCCCNC(=S)NC(=O)c1ccc(F)cc1 [Compound 2-15] |  |  |  | 18 ± 3 | 8 ± 1
CCOC(=O)c1ccccc1NC(=O)c1c(O)[nH]c(=S)[nH]c1=O [Compound 1-34] | 22 ± 3 | 12 ± 1 |  |  | 
O=C(NC(=S)NCCc1ccccc1)C1CCCCC1 [Compound 2-28] |  |  |  | 18 ± 2 | 7 ± 1
CC1CCN(CCCn2c(=S)[nH]c3ccccc3c2=O)CC1 [Compound 1-12] | 23 ± 3 | 10 ± 1 |  |  | 
CC(C)(C)C(=O)NC(=S)Nc1sc2c(c1C(N)=O)CCCC2 [Compound 2-20] |  |  |  | 15 ± 2 | 8 ± 1
O=C(Nc1ccccc1)c1c(O)[nH]c(=S)[nH]c1=O [Compound 1-35] | 5 ± 1 | 2 ± 1 |  |  | 
Cc1ccc(C(=O)NC(=S)Nc2ccc(C)cn2)cc1 [Compound 2-24] |  |  | inactive | 19 ± 5 | 7 ± 1
O=C(NC(=S)NC1CCS(=O)(=O)C1)c1ccc(F)cc1 (centres unmarked) [Compound 2-13] |  |  |  | 20 ± 3 | 8 ± 1
COCCCn1c(=S)[nH]c2cc(C(=O)Nc3ccc(F)c(F)c3)ccc2c1=O [Compound 1-16] | 18 ± 3 | 10 ± 1 |  |  | 
CC(C)CC(NC(=O)Cn1c(=O)[nH]c(=O)c2ccccc21)c1ccccc1 (centres unmarked) [Compound 1-25] | 33 ± 2 | 15 ± 1 |  |  | 
O=C(CCCCCn1c(=S)[nH]c2ccccc2c1=O)NCc1ccc2c(c1)OCO2 [Compound 1-14] | 22 ± 2 | 11 ± 1 |  |  | 
O=C(CNC(=S)NC(=O)c1ccc(F)cc1)c1ccccc1 [Compound 2-22] |  |  |  | 26 ± 2 | 9 ± 1
